Experimental findings from patent US20230026696A1, “TRPV4 RECEPTOR LIGANDS” (UNIVERSITY OF UTAH RESEARCH FOUNDATION, priority 2019, published 2023) are described below.

Structures are written as SMILES. Structures can show the parent of a compound that is named as a salt.

T1 sequence (Q9HBA0 whole entry): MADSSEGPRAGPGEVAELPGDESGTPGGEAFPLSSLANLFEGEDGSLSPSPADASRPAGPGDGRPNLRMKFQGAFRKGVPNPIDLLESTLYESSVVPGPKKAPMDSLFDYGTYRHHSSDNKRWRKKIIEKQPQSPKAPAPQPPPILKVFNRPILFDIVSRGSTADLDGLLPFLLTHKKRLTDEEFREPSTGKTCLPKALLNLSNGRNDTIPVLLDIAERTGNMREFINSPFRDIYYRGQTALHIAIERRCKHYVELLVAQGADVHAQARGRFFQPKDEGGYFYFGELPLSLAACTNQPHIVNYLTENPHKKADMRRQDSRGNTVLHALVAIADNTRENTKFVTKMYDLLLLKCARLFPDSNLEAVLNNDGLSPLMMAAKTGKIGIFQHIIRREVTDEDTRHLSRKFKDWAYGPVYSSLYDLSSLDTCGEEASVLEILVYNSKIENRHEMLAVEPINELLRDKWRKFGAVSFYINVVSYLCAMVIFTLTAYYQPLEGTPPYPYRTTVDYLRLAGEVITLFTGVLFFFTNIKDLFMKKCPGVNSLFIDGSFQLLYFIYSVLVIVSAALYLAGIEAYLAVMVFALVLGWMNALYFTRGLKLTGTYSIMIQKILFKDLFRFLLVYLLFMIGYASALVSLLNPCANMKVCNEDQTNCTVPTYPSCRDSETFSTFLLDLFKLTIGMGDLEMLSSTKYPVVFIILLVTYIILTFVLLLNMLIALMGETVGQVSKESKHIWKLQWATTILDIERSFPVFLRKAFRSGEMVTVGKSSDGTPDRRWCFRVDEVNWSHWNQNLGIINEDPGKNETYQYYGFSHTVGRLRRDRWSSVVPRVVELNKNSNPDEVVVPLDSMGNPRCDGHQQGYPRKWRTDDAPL

This test addresses T1, human TRPV4 (Homo sapiens, UniProt Q9HBA0).
T1 construct: expressed in transfected cells
The test can be described thus: Fluorometric cell-based Ca2+ flux assay, HEK-293 cells stably overexpressing human TRPV4. The following applies: HEK-293 stably overexpressing human TRPV4; agonist GSK1016790A 30 nM. On the procedure:
Fluorometric cell-based Ca^2+ flux assays were performed to assess TRPV4 antagonist activity and determine potency (IC50 values) in human embryonic kidney-293 cells (HEK-293) that stably overexpress human TRPV4. The assays were performed according to methods described in: Deering-Rice, C. E., Johansen, M. E., Roberts, J. K., Thomas, K. C., Romero, E. G., Lee, J., Yost, G. S., Veranth, J. M., and Reilly, C. A. (2012), Mol. Pharmacol. 81(3), 411-419; Shapiro, D., Deering-Rice, C. E., Romero, E. G., Hughen, R. W., Light, A. R., Veranth, J. M., and Reilly, C. A. (2013), Chem Res. Toxicol., 26, 750-758; and Deering-Rice, C. E., Mitchell, V. K., Romero, E. G., Abdel Aziz, M. H., and Reilly, C. A. (2014), Pharmacol. Res. & Perspectives. 2(5), 1-10.
The HEK-293 cells stably overexpressing human TRPV4 were grown to confluence in 2% (w/v) gelatin-coated 96-well plates in DMEM:F12 media supplemented with 5% fetal bovine serum, 1× penicillin/streptomycin (Invitrogen) and Geneticin (300 μg/mL).
The HEK-293 cells were prepared for assay by replacing the growth media with a 1:1 solution of LHC-9 and Fluo 4-Direct (Invitrogen) reagent containing Fluo 4-AM, pluronic F-127, probenecid, and a proprietary quencher dye. The cells were then incubated at 37° C. for 1 h in a cell culture incubator. The cells were subsequently washed by replacing the loading solution with LHC-9 containing 1 mM water-soluble probenecid (Invitrogen), 750 μM Trypan Red (ATT Bioquest), and a test compound (at various concentrations). The cells were incubated for an additional 30 minutes at 37° C. to allow for Fluo 4-AM cleavage and activation, as well as equilibration to both the test compounds and Fluo 4.
An agonist treatment solution (90 nM GSK1016790A, a potent activator of TRPV4) was prepared in LHC9 at 3× concentration and 25 μL was added to 50 μL of media on the cells in 96 well plates, providing a final concentration of 30 nM. Changes in cellular fluorescence were monitored with a BMG Labtech NOVOStar fluorescence plate reader for 1 minute at 37° C. Data were quantified as the maximum rate of change in fluorescence intensity (max ΔF/s), corrected for media only treatment (negative control), and represented as the percentage of response relative to the no antagonist control. A minimum of three replicates were used for each treatment condition, with a minimum of 8 concentrations to derive the IC50 values reported for each antagonist. The IC50 values for each antagonist, which are shown in Table 4 below, were calculated according to methods described in the assays were performed according to methods described in: Deering-Rice, C. E., Johansen, M. E., Roberts, J. K., Thomas, K. C., Romero, E. G., Lee, J., Yost, G. S., Veranth, J. M., and Reilly, C. A. (2012), Mol. Pharmacol. 81(3), 411-419; Shapiro, D., Deering-Rice, C. E., Romero, E. G., Hughen, R. W., Light, A. R., Veranth, J. M., and Reilly, C. A. (2013), Chem Res. Toxicol., 26, 750-758; and Deering-Rice, C. E., Mitchell, V. K., Romero, E. G., Abdel Aziz, M. H., and Reilly, C. A. (2014), Pharmacol. Res. & Perspectives. 2(5), 1-10.
(In general: Calcium assays in cells follow changes in intracellular calcium, usually with a dye or a luminescent sensor.)
For `COc1ccc(S(=O)(=O)N2CC(CO)(COc3ccc(C#N)c(F)c3)C2)c(Cl)c1` [Compound 83, 4-((1-((2-chloro-4-methoxyphenyl)sulfonyl)-3-(hydroxymethyl)azetidin-3-yl)methoxy)-2-fluorobenzonitrile], the half-inhibitory concentration (IC50) (usually the concentration that gives 50% inhibition) was greater than 64 nM.

Compound `N#Cc1ccc(OCC2(CNC(=O)CO)CN(S(=O)(=O)c3ccc(Cl)cc3Cl)C2)cc1F` [Compound 47, N-((3-((4-Cyano-3-fluorophenoxy)methyl)-1-((2,4-dichlorophenyl)sulfonyl)azetidin-3-yl)methyl)-2-hydroxyacetamide] displayed an IC50 of 348 nM. That is a sub-micromolar value.

Compound `CC(CO)CNCC1(COc2ccc(C#N)c(F)c2)CN(S(=O)(=O)c2ccc(Cl)cc2Cl)C1` (stereo not shown) [Compound 34, 4-((1-((2,4-Dichlorophenyl)sulfonyl)-3-(((3-hydroxy-2-methylpropyl)amino)methyl)azetidin-3-yl)methoxy)-2-fluorobenzonitrile hydrochloride] displayed an IC50 of 0.2 nM.

Compound `N#Cc1ccc(OCC2(C(=O)O)CN(S(=O)(=O)c3ccc(Cl)cc3Cl)C2)cc1` [Compound 2, 3-((4-Cyanophenoxy)methyl)-1-((2,4-dichlorophenyl)sulfonyl)azetidine-3-carboxylic acid] gave a 50% inhibitory concentration (IC50) of no less than 50000 nM.

Consider `N#Cc1ccc(OCC2(CNCC3CCOCC3)CN(S(=O)(=O)c3ccc(Cl)cc3Cl)C2)cc1F` [Compound 29, 4-((1-((2,4-Dichlorophenyl)sulfonyl)-3-((((tetrahydro-2H-pyran-4-yl)methyl)amino)methyl)azetidin-3-yl)methoxy)-2-fluorobenzonitrile hydrochloride], for which the half-inhibitory concentration (IC50) turned out to be 5.2 nM.

On to `C[C@@H](O)CNCC1(COc2ccc(C#N)c(F)c2)CN(S(=O)(=O)c2ccc(Cl)cc2Cl)C1` [Compound 30, (R)-4-((1-((2,4-Dichlorophenyl)sulfonyl)-3-(((2-hydroxypropyl)amino)methyl)azetidin-3-yl)methoxy)-2-fluorobenzonitrile hydrochloride], for which the half-inhibitory concentration (IC50) came to 0.3 nM.

As to `N#CCCNCC1(COc2ccc(C#N)c(F)c2)CN(S(=O)(=O)c2ccc(Cl)cc2Cl)C1` [Compound 36, 4-((3-(((2-Cyanoethyl)amino)methyl)-1-((2,4-dichlorophenyl)sulfonyl)azetidin-3-yl)methoxy)-2-fluorobenzonitrile], the IC50 was 10 nM.

As to `N#Cc1ccc(OCC2(CO)CN(S(=O)(=O)c3ccc(C(F)(F)F)cc3Cl)C2)cc1F` [Compound 59, 4-((1-((2-Chloro-4-(trifluoromethyl)phenyl)sulfonyl)-3-(hydroxymethyl)azetidin-3-yl)methoxy)-2-fluorobenzonitrile], the IC50 turned out to be 481 nM.

`N#Cc1ccc(OCC2(CNCCCO)CN(S(=O)(=O)c3ccc(Cl)cc3Cl)C2)cc1F` [Compound 19, 4-((1-((2,4-Dichlorophenyl)sulfonyl)-3-(((3-hydroxypropyl)amino)methyl)azetidin-3-yl)methoxy)-2-fluorobenzonitrile hydrochloride] returned an IC50 of 0.5 nM.

Consider `N#Cc1ccc(OCC2(CO)CN(S(=O)(=O)c3c(Cl)cccc3Cl)C2)cc1F` [Compound 75, 4-((1-((2,6-Dichlorophenyl)sulfonyl)-3-(hydroxymethyl)azetidin-3-yl)methoxy)-2-fluorobenzonitrile], for which the IC50 is greater than 1300 nM.

For the compound `N#Cc1ccc(OCC2(CO)CN(S(=O)(=O)c3cccc(C(F)(F)F)c3)C2)cc1F` [Compound 70, 2-Fluoro-4-((3-(hydroxymethyl)-1-((3-(trifluoromethyl)phenyl)sulfonyl)azetidin-3-yl)methoxy)benzonitrile], the IC50 was 5000 nM.

For `N#Cc1ccc(OCC2(COS(=O)(=O)CCN)CN(S(=O)(=O)c3ccc(Cl)cc3Cl)C2)cc1F` [Compound 15, (3-((4-Cyano-3-fluorophenoxy)methyl)-1-((2,4-dichlorophenyl)sulfonyl)azetidin-3-yl)methyl 2-aminoethane-1-sulfonate trifluoroacetate salt], the IC50 worked out at 21 nM.

Compound `N#Cc1ccc(OCC2(CO)CN(S(=O)(=O)c3ccc(Cl)cc3Cl)C2)c(Cl)c1` [Compound 88, 3-Chloro-4-((1-((2,4-dichlorophenyl)sulfonyl)-3-(hydroxymethyl)azetidin-3-yl)methoxy)benzonitrile] gave an IC50 of 500 nM.

`N#Cc1ccc(OCC2(CNCC(O)CO)CN(S(=O)(=O)c3ccccc3C#N)C2)cc1F` (stereo not shown) [Compound 115, 4-((1-((2-Cyanophenyl)sulfonyl)-3-(((2,3-dihydroxypropyl)amino)methyl)azetidin-3-yl)methoxy)-2-fluorobenzonitrile] yielded an IC50 of 1.98 nM.

`Cc1ccc(OCC2(CO)CN(S(=O)(=O)c3ccc(Cl)cc3Cl)C2)cc1` [Compound 92, (1-((2,4-Dichlorophenyl)sulfonyl)-3-((p-tolyloxy)methyl)azetidin-3-yl)methanol] gave an IC50 of roughly 5000 nM.

As to `COC(=O)c1ccc(OCC2(CO)CN(S(=O)(=O)c3ccc(Cl)cc3Cl)C2)cc1` [Compound 90, Methyl 4-((1-((2,4-dichlorophenyl)sulfonyl)-3-(hydroxymethyl)azetidin-3-yl)methoxy)benzoate], the IC50 was roughly 5000 nM.

The compound `N#Cc1ccc(OCC2(CO)CN(S(=O)(=O)c3ccc(F)c(Cl)c3)C2)cc1F` [Compound 67, 4-((1-((3-chloro-4-fluorophenyl)sulfonyl)-3-(hydroxymethyl)azetidin-3-yl)methoxy)-2-fluorobenzonitrile] registered an IC50 of 5000 nM.

Consider `CNCC(=O)NCC1(COc2ccc(C#N)c(F)c2)CN(S(=O)(=O)c2ccc(Cl)cc2Cl)C1` [Compound 48, N-((3-((4-Cyano-3-fluorophenoxy)methyl)-1-((2,4-dichlorophenyl)sulfonyl)azetidin-3-yl)methyl)-2-(methylamino)acetamide], for which the IC50 amounted to 252 nM.

Turning to `Cc1ccc(S(=O)(=O)N2CC(CO)(COc3ccc(C#N)c(F)c3)C2)cc1` [Compound 73, 2-Fluoro-4-((3-(hydroxymethyl)-1-tosylazetidin-3-yl)methoxy)benzonitrile], the IC50 amounted to 3000 nM. This IC50 is about 12-fold higher than that of the compound before.

`COC(=O)c1ccc(S(=O)(=O)N2CC(CO)(COc3ccc(C#N)c(F)c3)C2)cc1` [Compound 63, Methyl 4-((3-((4-cyano-3-fluorophenoxy)methyl)-3-(hydroxymethyl)azetidin-1-yl)sulfonyl)benzoate] had a half-inhibitory concentration (IC50) of 5000 nM.

In the case of `N#Cc1ccc(OCC2(CO)CN(S(=O)(=O)c3cc(Cl)cc(Cl)c3)C2)cc1F` [Compound 68, 4-((1-((3,5-Dichlorophenyl)sulfonyl)-3-(hydroxymethyl)azetidin-3-yl)methoxy)-2-fluorobenzonitrile], the IC50 amounted to 5000 nM.

Take `CC(=O)NC1(COc2ccc(C#N)c(F)c2)CN(S(=O)(=O)c2ccc(Cl)cc2Cl)C1` [Compound 53, N-(3-((4-Cyano-3-fluorophenoxy)methyl)-1-((2,4-dichlorophenyl)sulfonyl)azetidin-3-yl)acetamide]: the half-maximal inhibitory concentration (IC50) came to 88 nM.

On to `N#Cc1ccc(OCC2(CO)CN(S(=O)(=O)c3ccccc3)C2)cc1F` [Compound 72, 2-Fluoro-4-((3-(hydroxymethyl)-1-(phenylsulfonyl)azetidin-3-yl)methoxy)benzonitrile], for which the 50% inhibitory concentration (IC50) is 5000 nM. Against the preceding compound, the IC50 is about 57-fold higher.

As for `CCOC(=O)CCNCC1(COc2ccc(C#N)c(F)c2)CN(S(=O)(=O)c2ccccc2C#N)C1` [Compound 114, Ethyl 3-(((3-((4-cyano-3-fluorophenoxy)methyl)-1-((2-cyanophenyl)sulfonyl)azetidin-3-yl)methyl)amino)propanoate], the IC50 worked out at 6.45 nM.

The compound `CS(=O)(=O)c1ccc(S(=O)(=O)N2CC(CO)(COc3ccc(C#N)c(F)c3)C2)cc1` [Compound 69, 2-Fluoro-4-((3-(hydroxymethyl)-1-((4-(methylsulfonyl)phenyl)sulfonyl)azetidin-3-yl)methoxy)benzonitrile] had a concentration for half-maximal inhibition (IC50) of 5000 nM. Compared with the last compound, the IC50 is about 780-fold higher.
